Converted amounts (≈) assume the structure as drawn.
conditions: 21 °C

Going from `O=C(O)c1ccccc1C(=O)c1ccc(O)cc1` to `CC(=O)N[C@@H](Cc1c[nH]c2ccccc12)C(=O)O` (racemic), the solubility rises from 2.61 mM (≈ 632 µg/mL) to 4.87 mM (≈ 1200 µg/mL) (1.9-fold).

`COc1ccc(NC(N)=O)cc1` gave a solubility of 25.6 mM (≈ 4250 µg/mL).

same assay, conditions: 22 °C

Compared with `COCOC(=O)c1ccccc1O`, `O=[N+]([O-])c1cccc(P(=O)(O)O)c1` is 960-fold higher in solubility: 5.01 mM (≈ 913 µg/mL) for the first, 4830 mM (≈ 980000 µg/mL) for the second.

same assay, conditions: 23 °C

Going from `CC(=O)C1(C)CO1` (stereo not given) to `CCC(C(=O)O)C(CC)C(=O)O` (stereo not given), the solubility falls from 2400 mM (≈ 240000 µg/mL) to 69.5 mM (≈ 12100 µg/mL) (35-fold).

Molecule `N#CCC(=O)Nc1ccccc1` has a solubility of 1.87 mM (≈ 300 µg/mL).

same assay, conditions: 24 °C

Compared with `Cc1ccc(S(N)(=O)=O)cc1N`, `c1ccc(CCNCc2ccccc2)cc1` is 6.4-fold lower in solubility: 12.1 mM (≈ 2260 µg/mL) for the first, 1.89 mM (≈ 400 µg/mL) for the second.

same assay, conditions: 25 °C

Compared with `O=C(O)CNC(=S)SCC(=O)O`, `NC(=O)NCCC(=O)O` is 3.2-fold higher in solubility: 50 mM (≈ 10500 µg/mL) for the first, 158 mM (≈ 20900 µg/mL) for the second.

Compared with `CC(=O)NC(=O)NC(C)=O`, `CCCC[C@H](NC(C)=O)C(=O)O` (racemic) is 1.6-fold lower in solubility: 486 mM (≈ 70000 µg/mL) for the first, 307 mM (≈ 53100 µg/mL) for the second.

Going from `CCC(=O)OC(C)C(=O)OC` (stereo not given) to `CCCCOC(=O)C(C)OC(=O)C(C)O` (stereo not given), the solubility falls from 137 mM (≈ 22000 µg/mL) to 42.2 mM (≈ 9200 µg/mL) (3.2-fold).

Compared with `CC1CCC(=NO)C(=NO)C1` (stereo not given), `CCC(C)(C)C1CCC(=NO)C(=NO)C1` (stereo not given) is 200-fold lower in solubility: 21.8 mM (≈ 3400 µg/mL) for the first, 0.108 mM (≈ 23 µg/mL) for the second.

Compared with `O=C(O)CCCCc1ccccc1`, `CCSC(C(=O)O)c1ccccc1` (stereo not given) is 7.9-fold higher in solubility: 3.42 mM (≈ 610 µg/mL) for the first, 27 mM (≈ 5300 µg/mL) for the second.

`O=C(O)CCC[Se][Se]CCCC(=O)O` and `O=C(O)CC[Se][Se]CCC(=O)O` are within 1.5-fold of each other in solubility: 5.66 mM (≈ 1880 µg/mL) for the first, 5.39 mM (≈ 1640 µg/mL) for the second.

First: O=COCc1ccco1
Second: CCOc1ccccc1C=CC(=O)[O-]
The solubility of the first is 87-fold higher: 104 mM (≈ 13100 µg/mL) for the first, 1.19 mM for the second.

First: Cc1cc(Cl)cc(Cl)c1O
Second: Cc1cccc(Cl)c1O
The solubility of the first is 19-fold lower: 9.04 mM (≈ 1600 µg/mL) for the first, 168 mM (≈ 24000 µg/mL) for the second.

First: CCc1nc2c(c(=O)n(C)c(=O)n2C)n1C
Second: CC(C)C1OC(=O)c2ccccc21 (stereo not given)
The solubility of the first is 4.9-fold higher: 27 mM (≈ 6000 µg/mL) for the first, 5.54 mM (≈ 976 µg/mL) for the second.

First: CCC(=O)Oc1ccc([N+](=O)[O-])cc1
Second: Nc1cc([N+](=O)[O-])ccc1Br
The solubility of the first is 2.2-fold lower: 0.128 mM (≈ 25 µg/mL) for the first, 0.277 mM (≈ 60 µg/mL) for the second.

First: C1CCC2NCCCC2C1 (stereo not given)
Second: O=C(NC1CCCCC1)c1cccnc1
The solubility of the first is 17-fold higher: 82.6 mM (≈ 11500 µg/mL) for the first, 4.8 mM (≈ 980 µg/mL) for the second.

First: N#CCCN(CCC#N)C(CC(=O)O)C(=O)O (racemic)
Second: CC(C)[C@H](NCCC#N)C(=O)O
The solubility of the first is 2.6-fold lower: 29.3 mM (≈ 7000 µg/mL) for the first, 75.2 mM (≈ 12800 µg/mL) for the second.

First: N#CNC(N)=S
Second: NC(=O)OC(CCl)CCl
The solubility of the first is 23-fold higher: 989 mM (≈ 100000 µg/mL) for the first, 43.6 mM (≈ 7500 µg/mL) for the second.

Going from `CCCOCCC(=O)OC` to `CCCCCOC(=O)CCOCC`, the solubility falls from 233 mM (≈ 34000 µg/mL) to 6.37 mM (≈ 1200 µg/mL) (37-fold).

Compared with `CCCCCCCCCCCCCCCCNC(=O)C(C)O` (stereo not given), `CCCCCCCCCCNC(=O)C(C)O` (stereo not given) is 2-fold higher in solubility: 0.223 mM (≈ 70 µg/mL) for the first, 0.436 mM (≈ 100 µg/mL) for the second.

Compared with `CCOC(=O)c1cccnc1`, `CCCCCCCOC(=O)c1cccnc1` is 200-fold lower in solubility: 370 mM (≈ 56000 µg/mL) for the first, 1.81 mM (≈ 400 µg/mL) for the second.

Going from `CCC(CC)COC(=O)NS(N)(=O)=O` to `CCCCC(CC)COC(=O)NS(N)(=O)=O` (stereo not given), the solubility falls from 17.8 mM (≈ 4000 µg/mL) to 3.96 mM (≈ 1000 µg/mL) (4.5-fold).

Compared with `COC(C)C(NC=O)C(=O)O` (racemic), `CCC/C(=C\C(=O)O)C(=O)O` is 3.4-fold lower in solubility: 242 mM (≈ 39000 µg/mL) for the first, 70.2 mM (≈ 11100 µg/mL) for the second.

Compared with `ON=C1C=CC(=NO)c2ncccc21`, `c1ccc(-c2cccnc2)nc1` is 1600-fold higher in solubility: 0.159 mM (≈ 30 µg/mL) for the first, 256 mM (≈ 40000 µg/mL) for the second.

First: CC(=O)CC(=O)c1ccccc1
Second: O=[N+]([O-])c1ccc(O)c([N+](=O)[O-])c1-c1ccccc1
The solubility of the first is 12-fold higher: 2.36 mM (≈ 383 µg/mL) for the first, 0.192 mM (≈ 50 µg/mL) for the second.

First: O=C(O)C(S)CCC(S)C(=O)O (stereo not given)
Second: N=C(NO)C(=N)NO
The solubility of the first is 50-fold lower: 3.34 mM (≈ 703 µg/mL) for the first, 167 mM (≈ 19700 µg/mL) for the second.

Compared with `CCCCCCCCOCC(O)CO` (stereo not given), `CCCCCCCCCCNC(=O)c1cccnc1` is 14-fold lower in solubility: 12 mM (≈ 2450 µg/mL) for the first, 0.838 mM (≈ 220 µg/mL) for the second.

Going from `CCCCCNC(=O)C(C)O` (stereo not given) to `CCCCCCCCCNC(=O)c1cccnc1`, the solubility falls from 414 mM (≈ 66000 µg/mL) to 0.725 mM (≈ 180 µg/mL) (570-fold).

Going from `CC(C)C1OCC2(CO1)COC(C(C)C)OC2` (stereo not given) to `CCCC(O)CC(C)C` (stereo not given), the solubility rises from 0.769 mM (≈ 188 µg/mL) to 12.4 mM (≈ 1610 µg/mL) (16-fold).

Going from `O=C1OCc2ccc(Cl)cc21` to `Nc1ccc2c(c1)C(=O)OC2`, the solubility rises from 3.3 mM (≈ 556 µg/mL) to 9.09 mM (≈ 1360 µg/mL) (2.8-fold).

First: Nc1ccc(S(=O)(=O)c2ccc(Cl)cc2)cc1
Second: Cc1ccc(S(C)(=O)=O)cc1
The solubility of the first is 140-fold lower: 0.0747 mM (≈ 20 µg/mL) for the first, 10.3 mM (≈ 1750 µg/mL) for the second.

Compared with `CCCCOP(=O)(OCC)OCCCC`, `CCCCS(=O)(=O)C(S(=O)(=O)CCCC)S(=O)(=O)CCCC` is 13-fold lower in solubility: 14.3 mM (≈ 3400 µg/mL) for the first, 1.06 mM (≈ 400 µg/mL) for the second.

Compared with `ON=C1CCCCC1`, `ON=C1CCCCCC1=NO` is 4.2-fold lower in solubility: 159 mM (≈ 18000 µg/mL) for the first, 37.6 mM (≈ 5870 µg/mL) for the second.

First: CC1=C(C(=O)O)CCC1(C)C
Second: O=NN1CCCC1=O
The solubility of the first is 870-fold lower: 1.3 mM (≈ 200 µg/mL) for the first, 1130 mM (≈ 129000 µg/mL) for the second.

First: COC1CC1
Second: C[C@@H](N)C(C)(C)C
The solubility of the first is 13-fold lower: 763 mM (≈ 55000 µg/mL) for the first, 9690 mM (≈ 980000 µg/mL) for the second.

Compared with `CCCCCCCCCCCCNC(=O)c1cccnc1`, `CCCC(=O)NCCNC(=O)CCC` is 390-fold higher in solubility: 0.62 mM (≈ 180 µg/mL) for the first, 239 mM (≈ 47800 µg/mL) for the second.

Going from `C[Si](C)(C)CCN` to `O=[N+]([O-])c1cc(CCO)ccc1O`, the solubility rises from 15.6 mM (≈ 1830 µg/mL) to 69.9 mM (≈ 12800 µg/mL) (4.5-fold).

For `Cc1cccc(I)c1O`, the solubility was 14.5 mM (≈ 3400 µg/mL).

same assay, conditions: 26 °C

First: O=C(S)CCCCCCC(=O)S
Second: CC(C=NO)=NO
The solubility of the first is 77-fold lower: 5.82 mM (≈ 1200 µg/mL) for the first, 451 mM (≈ 46000 µg/mL) for the second.

same assay, conditions: 27 °C

`O=C(O)CCC(=O)OC[C@@H](NC(=O)C(Cl)Cl)[C@H](O)c1ccc([N+](=O)[O-])cc1` showed a solubility of 8.27 mM (≈ 3500 µg/mL).

same assay, conditions: 28 °C

`NC(=O)NCNC(N)=O` and `CC(NC(N)=O)NC(N)=O` are within 1.5-fold of each other in solubility: 223 mM (≈ 29400 µg/mL) for the first, 256 mM (≈ 37400 µg/mL) for the second.

same assay, conditions: 30 °C

First: CCn1cnc2c1c(=O)n(C)c(=O)n2C
Second: CCCCn1cnc2c1c(=O)n(C)c(=O)n2C
The solubility of the first is 11-fold higher: 176 mM (≈ 36700 µg/mL) for the first, 15.6 mM (≈ 3690 µg/mL) for the second.

Compared with `CN(C)C(=O)c1cccc(C(=O)N(C)C)c1`, `COC(=O)c1ccc(O)c(Cl)c1` is 2300-fold lower in solubility: 3070 mM (≈ 676000 µg/mL) for the first, 1.34 mM (≈ 250 µg/mL) for the second.

Work on `O=S(=O)(CCCl)CCS(=O)(=O)CCCl` yielded a solubility of 35.6 mM (≈ 10100 µg/mL).

Reference: the OPERA property sets (Mansouri et al. 2018)
